Measured values reported in PubChem BioAssay AID504598 (NMMLSC, 2011).
pEC50: −log10 of the molar value. Calls of active or inactive are those of the source. The rule behind the calls is not given here.

What was measured:
[1] = molecular target: Bcl-2-like protein 10 (Homo sapiens) (UniProt Q9HD36); assay: Bfl1 and BclB peptide interaction inhibitors, dose response, biochemical, powder compounds, wildtype and mutant Bfl1, panel (AID 504598); conditions: Bfl1/BclB peptide binding displacement assay, BclB wildtype; for percent span: stronger effect = higher value
[2] = molecular target: Bcl-2-related protein A1 (Homo sapiens) (UniProt Q16548); assay: as above; conditions: Bfl1/BclB peptide binding displacement assay; for percent span: stronger effect = higher value
[3] = Bfl1 wildtype, deteriorated Bfl1 protein

Sequence of Bcl-2-related protein A1 (Homo sapiens) (Q16548 whole entry, looked up): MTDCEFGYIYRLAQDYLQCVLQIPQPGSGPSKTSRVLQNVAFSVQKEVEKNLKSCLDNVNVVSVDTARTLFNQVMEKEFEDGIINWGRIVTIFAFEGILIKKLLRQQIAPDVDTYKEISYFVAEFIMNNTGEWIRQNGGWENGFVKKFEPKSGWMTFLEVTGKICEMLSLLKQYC
Sequence of Bcl-2-like protein 10 (Homo sapiens) (Q9HD36 whole entry, looked up): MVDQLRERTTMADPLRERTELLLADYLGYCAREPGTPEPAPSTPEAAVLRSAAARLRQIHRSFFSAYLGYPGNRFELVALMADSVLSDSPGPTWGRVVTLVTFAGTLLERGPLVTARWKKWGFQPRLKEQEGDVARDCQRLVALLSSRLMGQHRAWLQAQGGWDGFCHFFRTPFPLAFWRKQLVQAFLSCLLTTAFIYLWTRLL

Row | SMILES | percent span [1] | percent span ([2]; Bfl1 mutant) | percent span ([2]; Bfl1 wildtype) | EC50 [1] | pEC50 [2, 3] | EC50 ([2]; Bfl1 mutant) | pEC50 ([2]; Bfl1 wildtype) | EC50 ([2]; Bfl1 wildtype) | pEC50 [1]
1 | Cc1cc(C)nc(/N=C(/N)Nc2cccc(N)c2)n1 | inactive | inactive | inactive |  |  |  |  |  | 
2 | Cc1cc(N)ccc1N1CCCC1 |  | inactive | inactive | > 141 µM (inactive) | 5.73 |  |  |  | 
3 | CNC1CCC(Br)CC(C(=O)/C=C/c2cccc(OC)c2OC)C1=O (stereo unspecified) | inactive |  |  |  | 4.74 | inactive | 5.04 |  | 
4 | CCOC(=O)CS(=O)(=O)c1nc(-c2ccccc2)cc(C(F)(F)F)n1 | inactive | inactive | inactive |  | 6.44 |  |  |  | 
5 | CCN1C(=O)/C(=C\C=C2/C=CC=CN2CC)SC1=S | inactive | inactive | inactive |  | 6.32 |  |  |  | 
6 | CNC(CC(=O)c1ccc([N+](=O)[O-])cc1)C(Cl)(Cl)Cl (stereo unspecified) | inactive | inactive | inactive |  | 7.50 |  |  |  | 
7 | Cc1cc(-c2cc(-c3ccc(Cl)cc3)nc(N)c2C#N)co1 | inactive | inactive |  |  | 5.97 |  |  | > 104 µM (inactive) | 
8 | CCOC(=O)CCS(=O)(=O)c1nc(-c2ccccc2)cc(C(F)(F)F)n1 | inactive | inactive | inactive |  |  |  |  |  | 
9 | O=C1NC(=O)C2(Cc3c(nc4ccccn4c3=O)N3CCCCCC32)C(=O)N1Cc1ccccc1 (stereo unspecified) | inactive | inactive | inactive |  |  |  |  |  | 
10 | Oc1ccc(NCc2ccccc2OCc2ccccc2)cc1 | inactive | inactive | inactive |  | 6.21 |  |  |  | 
11 | Cc1ccc(C)n1-c1ccc(Br)cc1C(=O)O | inactive | inactive | inactive |  |  |  |  |  | 
12 | CC(=O)c1ccc(NC(=O)c2ccc3nc(-c4ccco4)c(-c4ccco4)nc3c2)cc1 |  | inactive | inactive | inactive | 5.67 |  |  |  | 
13 | O=C1C(Cl)=C(N2CCN(c3ccccc3[N+](=O)[O-])CC2)C(=O)c2ccccc21 | inactive | inactive | inactive |  | 6.38 |  |  |  | 
14 | Cc1ccc(-c2cc(-c3ccc(C)o3)nc(N)c2C#N)cc1 | inactive | inactive | inactive |  | 5.90 |  |  |  | 
15 | CC(C)c1nnc(NC(=O)CCS(=O)(=O)c2nc(-c3cccs3)cc(C(F)(F)F)n2)s1 | inactive | inactive | inactive |  |  |  |  |  | 
16 | Cc1ccc(-c2cc(-c3ccc(F)cc3)c(C#N)c(N)n2)o1 | inactive | inactive | inactive |  | 5.82 |  |  |  | 
17 | CN1CCN(C2=C(Cl)C(=O)N(c3cccc(Cl)c3)C2=O)CC1 | inactive | inactive | inactive |  |  |  |  |  | 
18 | O=C(Nc1ccc2nc(-c3ccco3)c(-c3ccco3)nc2c1)N1CCCCCC1 |  | inactive | inactive |  | 6.46 |  |  |  | 4.87
19 | Cc1ccc(C=NNC(=O)CSc2nnc(-c3ccc(Cl)cc3)n2-c2ccccc2)o1 |  | inactive | inactive |  |  |  |  |  | 5.64
20 | CN1CCN(C2=C(Cl)C(=O)N(c3ccc(Cl)c(Cl)c3)C2=O)CC1 | inactive | inactive | inactive |  |  |  |  |  | 
21 | COc1cccc(-c2cc(C(F)(F)F)nc(S(C)(=O)=O)n2)c1 | inactive | inactive | inactive |  | 6.59 |  |  |  | 
